Experimental data from US12636285B2 (ViiV Healthcare Company, priority 2019, dated 2026).
Where “and” joins values, the source holds several entries; their conditions need not be identical. Identical values can stand only once. Like-named read-outs stand apart in the source and are kept apart here.

How the values were obtained:
[1] = test system: laboratory strains of HIV-1 (subtype B); assay: Antiviral activity in PBMCs and 293 cells; assay type: cell-based; details: Human immunodeficiency virus 1, HEK293, n=4 strains
[2] = test system: recombinant HIV-1 strain NL432 viruses; assay type: cell-based
[3] = Binding to human plasma proteins; assay type: in vitro ADME; details: read-out: % Bound to human plasma proteins (converted)
clinical HIV-2 isolates = assay: Antiviral activity against clinical HIV-2 isolates; assay type: cell-based; details: Human immunodeficiency virus 2, n=4
[4] = QT cross-over trial of oral cabotegravir in healthy subjects; assay type: in vivo, human; details: oral cabotegravir 150 mg every 12 hours
[5] = in vivo
Description: The observed hepatocellular findings in mice may be rodent specific.

Structure (SMILES): C[C@H]1CO[C@@H]2Cn3cc(C(=O)NCc4ccc(F)cc4F)c(=O)c(O)c3C(=O)N12 [Cabotegravir, (3S,11aR)-N-[(2,4-difluorophenyl)methyl]-6-hydroxy-3-methyl-5,7-dioxo-2,3,5,7,11,11a-hexahydro[1,3]oxazolo[3,2-a]pyrido[1,2-d]pyrazine-8-carboxamide]
- EC50 [1]: 0.22 to 1.7 nM
- activity against viruses with NNRTI substitutions K103N or Y188L, or NRTI substitutions M184V, D67N/K70R/T215Y, or V751/F77L/F116Y/Q151M [2]: active
- reduction in susceptibility ([2]; E138K+Q148K): 81 fold
- reduction in susceptibility ([2]; Q148R+N155H): 61 fold
- fraction unbound [3]: < 0.002
- EC50 (clinical HIV-2 isolates; read-out: EC50 range): 0.1 to 0.14 nM
- EC50 (clinical HIV-2 isolates; read-out: median EC50): 0.12 nM
- QTc interval over 24 hours post dose [4]: did not prolong the QTc interval
- maximum time-matched mean QTc change (QTcF), baseline and placebo adjusted ([4]; 3 doses): 2.62 ms
- decreased susceptibility in virologic failures (HIV-1; G140R, n=1): 7 fold
- decreased susceptibility in virologic failures (HIV-1; N155H, n=1): 3 fold
- decreased susceptibility in virologic failures (HIV-1; Q148R, n=2): 5 fold and 9 fold
- carcinogenicity ([5]; mouse): not carcinogenic
- carcinogenicity ([5]; rat): not carcinogenic
